Measured values taken from patent US20230138327A1, “COMPOSITIONS AND METHODS CONTAINING REDUCED NICOTINAMIDE RIBOSIDE FOR PREVENTION AND TREATMENT OF PANCREATIC DISEASES AND CONDITIONS” (SOCIETE DES PRODUITS NESTLE S.A., priority 2020, published 2023).
Entries after “also recorded” stand apart in the source; their conditions may differ.

Assays:
3T3 fibroblasts = test: NAD+ levels in 3T3 fibroblasts after NRH treatment; type: cell-based
mice [1] = test: Tissue NAD+ levels in mice after intraperitoneal injection; type: in vivo; settings: IP 500 mg/kg, after 1 h
Description: (§1) The above results prompted us to test whether NRH could act as an effective NAD+ precursor in vivo. For this, we first intraperitoneally (IP) injected mice with either NR or NRH (500 mg/kg). […] Importantly, NRH was detectable in circulation after IP injection.

INS-1E cells [2] = test: Oxidative stress (H2O2)-induced pancreatic β-cell death, cell viability; type: cell-based; settings: H2O2 0.4 mM, 24 hours, NRH 0.1 mM
Description: INS-1E cells were treated with hydrogen peroxide (H2O2; 0.4 mM) for 24 hrs in the presence or absence of NRH (0.1 mM). PBS was used as vehicle for NRH. After 24 hrs, cell viability was evaluated by lumiscence using a commercial kit (Cell Title-Glow; Promega). All results are expressed as mean+/−SEM of n=5 experiments. * indicates P<0.05 vs. the respective vehicle treated group.
INS-1E cells were treated with hydrogen peroxide (H2O2; 0.4 mM) for 24 hours in the presence or absence of NRH (0.1 mM). PBS was used as vehicle for NRH. After 24 hours, cell viability was evaluated by luminescence using a commercial kit (Cell Title-Glow; Promega).

[3] = system: primary hepatocytes from control or NRK1 knockout (NRK1KO) mice; test: NAD+ levels in primary hepatocytes from control or NRK1 knockout mice; type: cell-based; settings: 1 hour of treatment
Source text: The action of NRH was also NAMPT-independent, based on experiments using FK866, a NAMPT inhibitor. If NRH led to NAD+ synthesis via the formation of NMNH, this hypothetical path would require the phosphorylation of NRH into NMNH. Given the essential and rate-limiting role of NRK1 in NR phosphorylation, we wondered whether the ability of NRH to boost NAD+ levels was NRK1 dependent. To answer this question, we evaluated NRH action in primary hepatocytes from either control or NRK1 knockout (NRK1KO) mice. […] Further, they rule out the possibility that NRH-induced NAD+ […] is driven by NRH oxidation into NR.

mice [4] = test: Pancreas NAD+ levels in mice after intraperitoneal administration; type: in vivo; settings: I.P. 500 mg/kg, after 1 hour
Description: 8 week-old C57BI/6NTac mice were intraperitoneally administered with either saline (as vehicle) or NRH (500 mg/kg). After 1 hour, pancreas NAD+ was measured using commercial kits. All results are expressed as mean+/−SEM of n=4 mice per group, corrected by weight of tissue.

C2C12 myotubes = test: NAD+ levels in C2C12 myotubes after NRH treatment; type: cell-based
[5] = Description: (§2) NR degradation to NAM has been proposed as a limitation for its pharmacological efficacy. To evaluate whether NRH was also susceptible to degradation to NAM, we spiked NRH or NR in isolated mouse plasma. […] We also tested the stability of NRH in other matrixes. […] Finally, we also certified NRH stability in water (pH=7, at room temperature) for 48 h.
[6] = Circulating NRH, NR and NAM in mice after intraperitoneal injection; type: in vivo
Source text: (§3) Levels of NRH and other NAD-related metabolites in biological samples were obtained by using a cold liquid-liquid extraction using a mixture of methanol:water:chloroform in 5:3:5 (v/v), from which the polar phase was recovered for hydrophilic interaction ultra-high performance liquid chromatography mass spectrometry (UHPLC-MS) analysis. The UHPLC consisted of a binary pump, a cooled autosampler, and a column oven (DIONEX Ultimate 3000 UHPLC+ Focused, Thermo Scientific), connected to a triple quadrupole spectrometer (TSQ Vantage, Thermo Scientific) equipped with a heated electrospray ionisation (H-ESI) source. Of each sample, 2 μL were injected into the analytical column (2.1 mm×150 mm, 5 μm pore size, 200 Å HILICON iHILIC®-Fusion(P)), guarded by a pre-column (2.1 mm×20 mm, 200 Å HILICON iHILIC®-Fusion(P) Guard Kit) operating at 35° C. The mobile phase (10 mM ammonium acetate at pH 9, A, and acetonitrile, B) was pumped at 0.25 mL/min flow rate over a linear gradient of decreasing organic solvent (0.5-16 min, 90-25% B), followed by re-equilibration for a total run time of 30 min. The MS operated in positive mode at 3500 V with multiple reaction monitoring (MRM). The software Xcalibur v4.1.31.9 (Thermo Scientific) was used for instrument control, data acquisition and processing. Retention time and mass detection was confirmed by authentic standards.
as §1

Stability in water = type: physicochemical; settings: pH=7, at room temperature
Description: as §2

INS-1E cells [7] = test: Inflammatory cytokine (IL-1 b)-induced pancreatic β-cell death, cell viability; type: cell-based; settings: IL-1 b 0.25 ng/ml, 24 hours, NRH 0.1 mM
Description: INS-1E cells were treated with Interleukin 1 b (IL-1 b; 0.25 ng/ml) for 24 hrs in the presence or absence of NRH (0.1 mM). PBS was used as vehicle for NRH. After 24 hrs, cell viability was evaluated by luminescence using a commercial kit (Cell Title-Glow; Promega). All results are expressed as mean+/−SEM of n=6 experiments. * indicates P<0.05 vs. the respective vehicle treated group.
INS-1E cells were treated with Interleukin 1 b (IL-1 b; 0.25 ng/ml) for 24 hours in the presence or absence of NRH (0.1 mM). PBS was used as vehicle for NRH. After 24 hours, cell viability was evaluated by luminescence using a commercial kit (Cell Title-Glow; Promega).

mice [8] = test: Hepatic NAD+ levels in mice after oral administration; type: in vivo
Description: 8 week-old C57BI/6NTac mice were orally gavaged with either saline (as vehicle), NR (500 mg/kg) or NRH (500 mg/kg). After 1 hour, liver, skeletal muscle and kidney NAD levels were evaluated. All results are expressed as mean +/−SEM of n=5 mice per group. * indicates statistical difference at p<0.05 vs. vs. saline-treated mice. #indicates statistical difference at p<0.05 vs. NR treated mice.
Oral administration of NRH led to very similar results to those observed after IP administration. […] NRH was detectable in plasma 1 h after oral administration. In contrast, NR levels were undetectable at 1 h after NR administration.

[9] = Stability of NRH or NR spiked in isolated mouse plasma; type: in vitro ADME
Source text: as §3

Compound: NC(=O)C1=CN([C@@H]2O[C@H](CO)[C@@H](O)[C@H]2O)C=CC1 [NRH]
- NAD+ levels (3T3 fibroblasts): highly elevated
- NAD+ levels in kidney (mice [1]): increased NAD+ levels
- NAD+ levels in liver (mice [1]): increased NAD+ levels
- NAD+ levels in muscle (mice [1]): increased NAD+ levels
- Cell viability under hydrogen peroxide (INS-1E cells [2]): protects against oxidative stress-induced pancreatic β-cell death
- NAD+ levels in NRK1KO derived primary hepatocytes [3]: not affected by NRK1 deficiency
- NAD+ levels in the pancreas (mice [4]): efficiently increases NAD+ levels
- NAD+ levels (C2C12 myotubes): highly elevated
- Degradation to NAM in FBS supplemented media [5]: did not degrade to NAM
- NAM levels in circulation ([6]; mice, IP 500 mg/kg): only a very mild increase
- NR in circulation ([6]; mouse, in vivo, ip): much higher levels than those detected after NR injection itself
- NRH in circulation ([6]; mouse, in vivo, ip): detectable
- Stability in water, duration (Stability in water): 48 h
- Cell viability under Interleukin 1 b (INS-1E cells [7]): protects against inflammatory citokyne-induced pancreatic β-cell death
- Effect on hepatic NAD+ levels compared with NR (mice [8]): more potent effect on hepatic NAD+ levels than NR
- Compound levels in isolated mouse plasma ([9]; 2 h of incubation): remained stable
- Generation of NAM in isolated mouse plasma ([9]; 2 h of incubation): not generated; also recorded: did not significantly alter NAM levels
- NR production in isolated plasma ([9]; NRH incubation in isolated plasma): did not lead to NR production
